# Measured values reported in ChEMBL document CHEMBL4739716, “Gpr139 receptor modulators” (2020).
# Tests used:
# [1] = target: T1, Probable G-protein coupled receptor 139 (Homo sapiens) (UniProt Q6DWJ6); assay: Agonist activity at human GPR139 expressed in CHO-K1 cells assessed as induction of beta-arrestin 2 recruitment incubated for 90 mins by PathHunter assay relative to JNJ63533054; assay type: cell-based
# T1 sequence (whole entry): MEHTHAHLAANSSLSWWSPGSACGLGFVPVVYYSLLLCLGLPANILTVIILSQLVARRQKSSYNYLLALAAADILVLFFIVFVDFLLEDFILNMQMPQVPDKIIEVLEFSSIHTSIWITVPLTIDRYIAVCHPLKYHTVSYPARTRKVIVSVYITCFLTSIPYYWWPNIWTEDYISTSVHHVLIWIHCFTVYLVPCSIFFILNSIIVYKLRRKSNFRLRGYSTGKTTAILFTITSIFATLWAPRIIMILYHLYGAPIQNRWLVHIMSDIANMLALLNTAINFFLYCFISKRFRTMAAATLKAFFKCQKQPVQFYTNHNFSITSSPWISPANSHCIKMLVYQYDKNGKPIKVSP
# [2] = target: T1, Probable G-protein coupled receptor 139 (Homo sapiens); assay: Agonist activity at human GPR139 expressed in CHO-K1 cells assessed as increase in calcium flux by calcium 5 dye based FLIPR assay relative to JNJ63533054; assay type: functional, cell-based
# [3] = target: T2, Probable G-protein coupled receptor 139 (Rattus norvegicus) (UniProt P0C0W8); assay: Agonist activity at rat GPR139 expressed in CHO-K1 cells assessed as increase in calcium flux by calcium 5 dye based FLIPR assay relative to JNJ63533054; assay type: cell-based
# T2 sequence (whole entry): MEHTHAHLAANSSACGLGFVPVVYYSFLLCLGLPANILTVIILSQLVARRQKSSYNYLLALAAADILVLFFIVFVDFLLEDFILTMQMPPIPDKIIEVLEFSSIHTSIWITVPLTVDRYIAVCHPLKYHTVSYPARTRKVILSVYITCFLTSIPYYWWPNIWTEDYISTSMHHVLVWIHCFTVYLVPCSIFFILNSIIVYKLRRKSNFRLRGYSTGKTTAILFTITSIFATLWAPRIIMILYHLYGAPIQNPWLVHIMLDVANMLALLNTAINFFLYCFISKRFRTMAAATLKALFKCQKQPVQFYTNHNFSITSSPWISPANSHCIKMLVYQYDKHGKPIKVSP
# [4] = target: T3, Probable G-protein coupled receptor 139 (Homo sapiens, UniProt Q6DWJ6); assay: Agonist activity at human GPR139 expressed in CHO-K1 cells assessed as increase in calcium flux by calcium 5 dye based FLIPR assay; assay type: functional, cell-based
# T3 sequence (Q6DWJ6 whole entry): T1 sequence (whole entry)
# [5] = target: T3, Probable G-protein coupled receptor 139; assay: Agonist activity at human GPR139 expressed in CHO-K1 cells assessed as induction of beta-arrestin 2 recruitment incubated for 90 mins by PathHunter assay; assay type: cell-based
# [6] = target: T4, Probable G-protein coupled receptor 139 (Rattus norvegicus, UniProt P0C0W8); assay: Agonist activity at rat GPR139 expressed in CHO-K1 cells assessed as increase in calcium flux by calcium 5 dye based FLIPR assay; assay type: cell-based
# T4 sequence (P0C0W8 whole entry): T2 sequence (whole entry)
Compound,Emax ([1]; filed as agonist) [%],Emax ([2]; filed as agonist) [%],Emax ([3]; filed as agonist) [%],EC50 ([6]; cho-k1) [nM],EC50 ([4]; cho-k1) [nM],other results
CC(C(=O)N[C@@H](C)c1ccc(Cl)c(F)c1)n1nc2cccnn2c1=O (stereo in doubt; I-6-2) [listing 1 of 2 here],50,> 80,> 80,–,–,–
C[C@H](NC(=O)Cn1nc2c(C(F)(F)F)ccnn2c1=O)c1ccc(Cl)c(F)c1,50,> 80,–,–,–,EC50 [4]: < 1 nM; EC50 ([5]; cho-k1): 1 nM
CC(C(=O)N[C@@H](C)c1ccc(Cl)c(F)c1)n1nc2ncccn2c1=O (stereo in doubt; form 1) [listing 1 of 2 here],–,–,–,10,1,EC50 [5]: ≥ 100 nM
Cc1ccc([C@H](C)NC(=O)C(C)n2nc3ccccn3c2=O)cc1 (stereo in doubt; form 3),50,> 80,–,–,–,Emax [3]: 25%
CC(C(=O)N[C@@H](C)c1ccc(Cl)c(F)c1)n1nc2ncccn2c1=O (stereo in doubt; form 1) [listing 2 of 2 here],50,> 80,50,–,–,–
CC(C(=O)N[C@@H](C)c1ccc(Cl)c(F)c1)n1nc2cccnn2c1=O (stereo in doubt; I-6-1) [listing 1 of 2 here],–,–,–,10,10,EC50 [5]: ≥ 100 nM
C[C@H](NC(=O)Cn1nc2ccccn2c1=O)c1ccc(-c2ccccc2)cc1,–,–,–,–,10,Emax [1]: < 25%; Emax [2]: 25%; EC50 [5]: ≥ 100 nM
CC(C(=O)N[C@@H](C)c1ccc(Cl)c(F)c1)n1nc2ccccn2c1=O (stereo in doubt; form 2) [listing 1 of 2 here],50,> 80,–,–,–,Emax [3]: 25%
CC(C(=O)N[C@@H](C)c1ccc(Cl)c(F)c1)n1nc2cccnn2c1=O (stereo in doubt; I-6-2) [listing 2 of 2 here],–,–,–,1,1,EC50 ([5]; cho-k1): 10 nM
Cc1ccc([C@H](C)NC(=O)C(C)n2nc3ccccn3c2=O)cc1 (stereo in doubt; form 2),–,–,–,–,–,EC50 [6]: < 1 nM; EC50 [5]: ≥ 100 nM
CC(C(=O)N[C@@H](C)c1ccc(Cl)c(F)c1)n1nc2ncccn2c1=O (stereo in doubt; form 2) [listing 1 of 2 here],50,> 80,–,–,–,Emax [3]: 25%
C[C@H](NC(=O)Cn1nc2ccc(C3CC3)nn2c1=O)c1ccc(Cl)c(F)c1,50,> 80,–,–,–,EC50 [4]: < 1 nM; EC50 ([5]; cho-k1): 1 nM
CC(C(=O)N[C@@H](C)c1ccc(Cl)c(F)c1)n1nc2cccnn2c1=O (stereo in doubt; I-6-1) [listing 2 of 2 here],–,> 80,50,–,–,Emax [1]: 25%
CC(C(=O)N[C@@H](C)c1ccc(Cl)c(F)c1)n1nc2ccccn2c1=O (stereo in doubt; form 2) [listing 2 of 2 here],–,–,–,1,1,EC50 ([5]; cho-k1): 10 nM
CC(C(=O)N[C@@H](C)c1ccc(Cl)c(F)c1)n1nc2ncccn2c1=O (stereo in doubt; form 2) [listing 2 of 2 here],–,–,–,–,–,EC50 [6]: ≥ 100 nM; EC50 ([5]; cho-k1): 1 nM
CNc1ccnn2c(=O)n(CC(=O)N[C@@H](C)c3ccc(Cl)c(F)c3)nc12,> 80,> 80,–,–,–,EC50 [4]: < 1 nM; EC50 ([5]; cho-k1): 1 nM
Cc1ccc([C@H](C)NC(=O)Cn2nc3c(C4CCNC4)cccn3c2=O)cc1 (some centres undefined),–,50,50,–,–,EC50 [6]: ≥ 100 nM; EC50 [4]: ≥ 100 nM
C[C@H](NC(=O)Cn1nc2ncc(F)cn2c1=O)c1ccc(Cl)cc1,–,> 80,–,–,1,EC50 [6]: ≥ 100 nM; Emax [3]: 25%
Cc1ccn2c(=O)n(CC(=O)N[C@@H](C)c3ccc(OC(F)(F)F)cc3)nc2n1,–,50,–,–,1,EC50 [6]: ≥ 100 nM; Emax [3]: < 25%
C[C@H](NC(=O)Cn1nc2c(N3CCNCC3)nccn2c1=O)c1ccc(Cl)c(F)c1,–,> 80,50,10,1,–
C[C@H](NC(=O)Cn1nc2ncccn2c1=O)c1ccc(Cl)c(Cl)c1,–,> 80,50,10,1,–
Cc1cc(C)n2c(=O)n(CC(=O)N[C@@H](C)c3ccc(Cl)c(F)c3)nc2n1,–,> 80,50,1,–,EC50 [4]: < 1 nM
